Results reported in ChEMBL document CHEMBL1201862, “PubChem BioAssay data set” (2004).
Active and inactive are the calls of the source.

Assays:
[1] = test system: Escherichia coli; assay: microbe, parasite or virus in culture
[2] = biological target: 26S proteasome non-ATPase regulatory subunit 14 (Homo sapiens, UniProt O00487); assay: inhibition of proteasome subunit RPN11 – biochemical, fluorescence polarization, uHTS hits, confirmation (AID 602368); type: functional
[3] = biological target: Prothrombin (Bos taurus, UniProt P00735); assay: thrombin protease inhibitors – biochemical, fluorescence polarization, uHTS hits, dose response (AID 602369); type: functional
[4] = biological target: Photoreceptor-specific nuclear receptor (Homo sapiens, UniProt Q9Y5X4); type: functional, cell-based;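 also: CHO-S cells with Gal4-NCOR and VP16-NR2E3 two-hybrid luciferase reporter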
Photoreceptor-specific nuclear receptor, sequence (Q9Y5X4 whole entry, the tested form may be a part): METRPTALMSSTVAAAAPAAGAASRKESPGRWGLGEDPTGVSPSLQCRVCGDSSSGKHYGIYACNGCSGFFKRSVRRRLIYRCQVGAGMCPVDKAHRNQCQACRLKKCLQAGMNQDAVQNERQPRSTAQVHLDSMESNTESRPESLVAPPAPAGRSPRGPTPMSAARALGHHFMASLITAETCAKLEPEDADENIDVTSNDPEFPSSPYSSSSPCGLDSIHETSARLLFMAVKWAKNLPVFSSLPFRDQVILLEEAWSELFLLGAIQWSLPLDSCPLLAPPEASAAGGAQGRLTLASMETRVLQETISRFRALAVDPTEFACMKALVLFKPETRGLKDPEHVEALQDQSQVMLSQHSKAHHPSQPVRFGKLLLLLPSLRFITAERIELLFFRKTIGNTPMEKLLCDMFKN

[5] = NIH-3T3 fibroblast cytotoxicity, dose response, cytotoxicity control, cell-based, fluorescence, Alamar Blue, secondary assay (AID 2327); type: functional;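 also: NIH-3T3 mouse fibroblasts cultured with fluconazole at 8 µg/mL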
[6] = biological target: Nonstructural protein 1 (Influenza A virus, UniProt Q194T2); type: functional, Influenza A virus (A/California/07/2009(H1N1))
Nonstructural protein 1, sequence (Q194T2 whole entry): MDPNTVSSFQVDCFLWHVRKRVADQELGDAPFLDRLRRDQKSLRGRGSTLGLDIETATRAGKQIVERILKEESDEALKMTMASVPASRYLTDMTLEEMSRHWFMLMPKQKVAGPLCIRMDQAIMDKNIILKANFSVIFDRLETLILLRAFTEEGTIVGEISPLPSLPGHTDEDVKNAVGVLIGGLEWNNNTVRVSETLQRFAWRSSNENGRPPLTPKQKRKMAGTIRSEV

[7] = biological target: ATP-dependent molecular chaperone HSP82 (Candida albicans (strain WO-1) (Yeast), UniProt C4YTQ8); assay: steroid-induced GRE reporter decrease in yeast – S. cerevisiae, luminescence, Hsp90 inhibitor project, dose response (AID 2400); type: functional, cell-based;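 also: beta-galactosidase luminescence from glucocorticoid response element reporter as proxy for Hsp90 function; inhibitor potency where signal loss means Hsp90 inhibition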
ATP-dependent molecular chaperone HSP82, sequence (C4YTQ8 whole entry): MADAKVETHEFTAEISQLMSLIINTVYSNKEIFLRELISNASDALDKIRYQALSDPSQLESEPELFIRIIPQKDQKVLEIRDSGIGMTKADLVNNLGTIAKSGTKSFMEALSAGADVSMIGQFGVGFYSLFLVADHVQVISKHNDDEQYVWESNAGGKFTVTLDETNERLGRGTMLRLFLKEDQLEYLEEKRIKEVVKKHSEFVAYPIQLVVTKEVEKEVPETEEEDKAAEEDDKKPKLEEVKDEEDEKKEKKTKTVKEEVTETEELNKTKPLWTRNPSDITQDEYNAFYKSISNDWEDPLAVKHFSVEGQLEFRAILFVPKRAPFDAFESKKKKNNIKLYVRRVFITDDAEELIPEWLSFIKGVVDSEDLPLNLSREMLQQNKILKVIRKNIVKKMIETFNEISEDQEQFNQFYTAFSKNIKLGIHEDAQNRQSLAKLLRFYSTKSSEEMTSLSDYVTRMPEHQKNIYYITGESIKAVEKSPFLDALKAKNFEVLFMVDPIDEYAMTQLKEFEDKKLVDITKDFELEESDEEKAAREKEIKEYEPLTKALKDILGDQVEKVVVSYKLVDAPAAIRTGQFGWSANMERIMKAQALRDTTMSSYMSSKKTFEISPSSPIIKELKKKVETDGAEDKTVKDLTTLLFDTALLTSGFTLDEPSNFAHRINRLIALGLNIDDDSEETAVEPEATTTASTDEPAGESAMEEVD

[8] = biological target: T1, Serine/threonine-protein phosphatase (Candida dubliniensis (strain CD36 / CBS 7987 / NCPF 3949 / NRRLY-17841) (Yeast), UniProt B9W6M3); assay: blockers of CaCl2-induced CDRE-lacZ signaling – S. cerevisiae, luminescence, secondary, dose response (AID 2388); type: functional, cell-based;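 also: yeast reporter cells carrying a calcineurin-responsive lacZ construct stimulated with calcium chloride; luminescent beta-galactosidase reporter signal in whole cells rather than isolated phosphatase activity; potency for inhibition where a drop in reporter signal means calcineurin blockade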
T1 sequence (B9W6M3 whole entry): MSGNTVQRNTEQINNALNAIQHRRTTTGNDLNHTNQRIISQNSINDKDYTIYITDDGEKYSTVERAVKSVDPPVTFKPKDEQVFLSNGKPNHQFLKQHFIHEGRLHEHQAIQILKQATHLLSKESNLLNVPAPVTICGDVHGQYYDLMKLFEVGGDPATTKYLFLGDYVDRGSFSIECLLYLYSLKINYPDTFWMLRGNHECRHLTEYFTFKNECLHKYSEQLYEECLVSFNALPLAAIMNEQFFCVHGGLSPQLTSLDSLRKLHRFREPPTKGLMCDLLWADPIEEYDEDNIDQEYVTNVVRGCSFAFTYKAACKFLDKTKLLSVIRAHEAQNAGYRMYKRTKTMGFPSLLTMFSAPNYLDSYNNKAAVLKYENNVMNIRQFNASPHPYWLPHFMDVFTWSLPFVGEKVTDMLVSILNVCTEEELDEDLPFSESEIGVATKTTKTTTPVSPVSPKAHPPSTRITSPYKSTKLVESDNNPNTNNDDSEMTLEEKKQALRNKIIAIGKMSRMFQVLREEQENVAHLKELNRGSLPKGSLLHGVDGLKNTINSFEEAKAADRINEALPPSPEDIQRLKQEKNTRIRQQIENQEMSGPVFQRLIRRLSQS

[9] = fluconazole-exposed Candida albicans growth modulators – fluorescence, retest, confirmation (AID 2467); type: functional, cell-based
[10] = biological target: 72 kDa type IV collagenase (Homo sapiens, UniProt P08253); assay: Dose Response validation of uHTS RPN11 inhibitor hits using a MMP-2 Fluorescence assay.; type: functional
72 kDa type IV collagenase, sequence (P08253 whole entry, the tested form may be a part): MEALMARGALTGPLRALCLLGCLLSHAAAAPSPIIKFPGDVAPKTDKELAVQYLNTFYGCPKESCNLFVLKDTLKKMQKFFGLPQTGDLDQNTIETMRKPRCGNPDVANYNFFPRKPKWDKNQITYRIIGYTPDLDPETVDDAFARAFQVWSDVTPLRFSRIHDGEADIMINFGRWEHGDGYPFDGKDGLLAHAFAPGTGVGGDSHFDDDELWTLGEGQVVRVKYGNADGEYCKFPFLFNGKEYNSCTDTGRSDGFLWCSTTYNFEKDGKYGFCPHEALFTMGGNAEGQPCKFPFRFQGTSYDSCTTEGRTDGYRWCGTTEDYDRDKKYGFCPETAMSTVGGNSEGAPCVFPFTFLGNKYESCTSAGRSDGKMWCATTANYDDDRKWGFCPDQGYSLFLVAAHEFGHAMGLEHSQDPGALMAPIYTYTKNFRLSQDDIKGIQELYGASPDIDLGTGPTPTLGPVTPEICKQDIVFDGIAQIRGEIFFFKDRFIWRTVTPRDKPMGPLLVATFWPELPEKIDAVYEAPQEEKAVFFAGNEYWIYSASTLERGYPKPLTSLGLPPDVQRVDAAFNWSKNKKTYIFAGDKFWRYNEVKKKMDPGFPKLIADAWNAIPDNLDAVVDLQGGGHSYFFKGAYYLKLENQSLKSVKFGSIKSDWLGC

[11] = biological target: T2, Sentrin-specific protease 1 (Homo sapiens, UniProt Q9P0U3); assay: SENP1 catalytic domain blockers, concentration series – biochemical, kinetic FRET, dose response (AID 651697); type: functional; conditions: read-out: IC50_Mean
T2 sequence (Q9P0U3 whole entry): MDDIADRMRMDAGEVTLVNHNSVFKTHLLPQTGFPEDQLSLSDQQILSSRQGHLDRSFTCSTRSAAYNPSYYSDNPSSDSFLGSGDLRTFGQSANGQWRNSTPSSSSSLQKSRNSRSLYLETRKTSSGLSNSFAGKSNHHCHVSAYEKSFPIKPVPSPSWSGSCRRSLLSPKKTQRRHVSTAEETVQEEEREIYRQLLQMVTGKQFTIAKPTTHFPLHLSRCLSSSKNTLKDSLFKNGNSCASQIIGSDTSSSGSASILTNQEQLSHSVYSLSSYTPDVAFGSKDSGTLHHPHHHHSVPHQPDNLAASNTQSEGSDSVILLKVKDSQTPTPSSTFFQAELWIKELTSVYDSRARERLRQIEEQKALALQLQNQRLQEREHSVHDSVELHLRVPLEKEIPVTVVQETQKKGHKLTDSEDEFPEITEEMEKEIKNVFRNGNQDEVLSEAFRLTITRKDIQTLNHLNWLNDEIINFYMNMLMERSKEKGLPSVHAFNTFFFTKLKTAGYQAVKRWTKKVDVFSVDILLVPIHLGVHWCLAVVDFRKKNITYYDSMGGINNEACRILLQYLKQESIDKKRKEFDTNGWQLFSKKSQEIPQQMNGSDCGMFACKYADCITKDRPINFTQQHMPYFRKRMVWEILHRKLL

[12] = biological target: T2, Sentrin-specific protease 1; assay: Dose response confirmation of small molecule inhibitors of the catalytic domain of the SUMO protease, SENP1 in a FRET assay.; type: functional; conditions: read-out: IC50_Mean
[13] = biological target: T3, fMet-Leu-Phe receptor (Homo sapiens, UniProt P21462); assay: formyl peptide receptor binders – dose response (AID 519); type: functional
T3 sequence (P21462 whole entry): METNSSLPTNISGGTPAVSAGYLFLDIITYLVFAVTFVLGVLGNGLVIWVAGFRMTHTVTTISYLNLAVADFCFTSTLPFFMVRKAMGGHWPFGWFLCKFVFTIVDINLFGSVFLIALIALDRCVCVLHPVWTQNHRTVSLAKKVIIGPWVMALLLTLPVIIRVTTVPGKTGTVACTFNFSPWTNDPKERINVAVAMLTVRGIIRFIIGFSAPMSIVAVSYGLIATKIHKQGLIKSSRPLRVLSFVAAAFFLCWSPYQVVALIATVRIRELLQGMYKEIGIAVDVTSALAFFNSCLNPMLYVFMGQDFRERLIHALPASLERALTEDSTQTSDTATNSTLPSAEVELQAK

[14] = biological target: T4, RNA-binding protein pos-1 (Caenorhabditis elegans, UniProt G5EF15); assay: disruptors of C. elegans POS-1 RNA interaction – biochemical, fluorescence polarization, dose response (AID 1964);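 also: purified POS-1 fused to maltose binding protein made in E. coli; potency of compounds blocking POS-1 binding to fluorescent RNA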
T4 sequence (G5EF15 whole entry): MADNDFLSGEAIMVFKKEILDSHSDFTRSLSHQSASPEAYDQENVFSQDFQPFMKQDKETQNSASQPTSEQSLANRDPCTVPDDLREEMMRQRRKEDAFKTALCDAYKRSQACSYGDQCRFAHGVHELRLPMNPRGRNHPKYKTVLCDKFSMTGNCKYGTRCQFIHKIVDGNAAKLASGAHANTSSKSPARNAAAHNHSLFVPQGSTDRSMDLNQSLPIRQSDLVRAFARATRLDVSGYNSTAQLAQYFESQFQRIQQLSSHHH

[15] = biological target: T5, Zinc finger protein mex-5 (Caenorhabditis elegans, UniProt Q9XUB2); assay: potency of MEX-5 RNA-binding blockers – biochemical, C. elegans, fluorescence polarization, dose response (AID 1960)
T5 sequence (Q9XUB2 whole entry): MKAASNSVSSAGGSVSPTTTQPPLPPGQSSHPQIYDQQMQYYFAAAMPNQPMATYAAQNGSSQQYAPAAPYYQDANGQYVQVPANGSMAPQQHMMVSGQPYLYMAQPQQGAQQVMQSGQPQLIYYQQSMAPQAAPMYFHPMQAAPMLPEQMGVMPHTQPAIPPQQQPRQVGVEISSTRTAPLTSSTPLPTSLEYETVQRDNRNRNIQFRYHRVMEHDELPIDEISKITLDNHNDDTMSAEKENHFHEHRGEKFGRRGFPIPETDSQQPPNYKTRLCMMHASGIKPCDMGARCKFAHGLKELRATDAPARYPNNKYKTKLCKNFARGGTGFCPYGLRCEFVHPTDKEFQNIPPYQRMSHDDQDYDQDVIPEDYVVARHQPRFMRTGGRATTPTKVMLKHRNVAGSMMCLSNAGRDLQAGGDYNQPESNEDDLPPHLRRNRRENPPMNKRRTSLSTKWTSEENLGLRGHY

[16] = test system: HEK293; assay: cells; conditions: Homo sapiens
[17] = test system: HEK293; assay: cells; conditions: Homo sapiens; remark: listed apart in the source
[18] = loss of viability in HepG2 cells – cell-based, CellTiter-Glo, cherry-picked, cytotoxicity control for Shn3 inhibitor project, dose response (AID 624134); type: functional
[19] = non-specific 3'UTR reporter inhibition in Clone20-Shn3RL – cell-based, Renilla luciferase, cherry-picked, counter-screen for Shn3 inhibitor project, dose response (AID 624133); type: functional
[20] = biological target: Protein Wnt-3a (Mus musculus, UniProt P27467); assay: antagonism of Wnt3a pathway luciferase reporter – Wnt-LIGHT cells, luminescence, selectivity assay for Gli-SUFU antagonist project, dose response (AID 651570); type: functional; conditions: read-out: IC50_Mean;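 also: Wnt-LIGHT reporter cells stimulated with conditioned medium from Wnt3a-producing cells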
Protein Wnt-3a, sequence (P27467 whole entry): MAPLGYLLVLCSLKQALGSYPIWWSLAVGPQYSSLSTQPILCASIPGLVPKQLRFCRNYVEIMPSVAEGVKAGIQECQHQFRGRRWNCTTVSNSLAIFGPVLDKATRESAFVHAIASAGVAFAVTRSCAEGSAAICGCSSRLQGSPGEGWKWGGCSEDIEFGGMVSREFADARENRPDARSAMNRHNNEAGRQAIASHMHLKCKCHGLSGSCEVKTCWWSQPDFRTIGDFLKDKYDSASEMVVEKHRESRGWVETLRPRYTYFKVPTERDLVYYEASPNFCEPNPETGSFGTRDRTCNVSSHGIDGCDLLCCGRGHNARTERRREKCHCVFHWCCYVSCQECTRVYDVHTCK

26S proteasome non-ATPase regulatory subunit 14, sequence (O00487 whole entry): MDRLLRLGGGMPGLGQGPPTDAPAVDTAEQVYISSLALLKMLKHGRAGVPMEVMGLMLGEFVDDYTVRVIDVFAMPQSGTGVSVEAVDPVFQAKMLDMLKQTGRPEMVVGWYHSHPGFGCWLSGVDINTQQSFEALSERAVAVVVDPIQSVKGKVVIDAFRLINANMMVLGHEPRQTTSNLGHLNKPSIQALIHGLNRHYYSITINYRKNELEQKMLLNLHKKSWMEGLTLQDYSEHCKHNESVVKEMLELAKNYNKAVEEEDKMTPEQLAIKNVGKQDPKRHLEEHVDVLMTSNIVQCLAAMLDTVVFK

**Q.** For `CCCn1c(=N)c(S(=O)(=O)c2ccc(F)cc2)cc2c(=O)n3cccc(C)c3nc21`, which AC50 [1] is on record?
**A.** 42.8 µM (active)

**Q.** With `CCC(=O)NC(c1cccs1)c1cc([N+](=O)[O-])c2cccnc2c1O` (stereo unspecified) as the compound, how does the IC50 [2] read?
**A.** 40.3 µM (active)

**Q.** What about the IC50 [3] of the same compound?
**A.** > 100 µM (inactive)

**Q.** What about the IC50 [4] of the same compound?
**A.** 2.47 µM (active)

**Q.** And the EC50 [5]?
**A.** 33.6 µM (active)

**Q.** And the IC50 [6]?
**A.** 6.66 µM (active)

**Q.** And the EC50 [7]?
**A.** 24 µM (active)

**Q.** What about the EC50 [8] of the same compound?
**A.** > 180 µM (inactive)

**Q.** What about the EC50 [9] of the same compound?
**A.** 0.185 µM (active)

**Q.** What about the IC50 [10] of the same compound?
**A.** 5.91 µM (active)

**Q.** For `COc1ccc(N2C(=O)C3C4C=CC(C4)C3C2=O)nn1` (stereo unspecified), which AC50 [1] is on record?
**A.** 26.5 µM (active)

**Q.** With `COc1cccc(NC2=Nc3cccc4cccc2c34)c1` as the compound, how does the IC50 [2] read?
**A.** 27.6 µM (active)

**Q.** And the IC50 [3]?
**A.** 37.8 µM (active)

**Q.** What about the IC50 [11] of the same compound?
**A.** 27.7 µM (inactive)

**Q.** What about the IC50 [12] of the same compound?
**A.** 41.3 µM (inactive)

**Q.** What about the IC50 [10] of the same compound?
**A.** > 100 µM (inactive)

**Q.** With `COc1ccc(-c2nnc(Nc3nc4c(OC)cccc4s3)o2)c(OC)c1` as the compound, how does the Ki [13] read?
**A.** > 66.7 µM (inactive)

**Q.** What about the EC50 [5] of the same compound?
**A.** > 150 µM (inconclusive)

**Q.** And the EC50 [14]?
**A.** > 300 µM (not active)

**Q.** What about the EC50 [15] of the same compound?
**A.** 61.3 µM (active)

**Q.** And the EC50 [9]?
**A.** > 38 µM (not active)

**Q.** What about the EC50 [16] of the same compound?
**A.** > 59.6 µM (inactive)

**Q.** And the EC50 [17]?
**A.** > 59.6 µM (inactive)

**Q.** With `CCCCCCCN1C2=NCCCN2c2ccccc21` as the compound, how does the AC50 [18] read?
**A.** 46 µM (active)

**Q.** What about the AC50 [19] of the same compound?
**A.** 11.8 µM (active)

**Q.** And the IC50 [20]?
**A.** 12.6 µM (active)
